Test results: ChEMBL document CHEMBL6078714, “Discovery of N-Trifluoromethylated Noscapines as Novel and Potent Agents for the Treatment of Glioblastoma” (J Med Chem, 2025)
Activity calls are given as the source filed them. The rule behind the calls is not given here.

Legend:
U-118-MG [1] = assay: Cell cycle arrest in human U-118-MG cells assessed as accumulation of cells at G1 phase at 100 uM incubated for 24 hrs by flow cytometric analysis (reference value: 56.2 %); assay type: functional
U-118-MG [2] = assay: Cell cycle arrest in human U-118-MG cells assessed as accumulation of cells at S phase at 100 uM incubated for 24 hrs by flow cytometric analysis (reference value: 10.7 %); assay type: functional
[3] = Nephrotoxicity in male BALB/c nude mouse xenografted with human U-118-MG cells assessed as intravascular necrosis of renal tubules at 0.5 mg/kg, ip administered daily for 4 weeks by H and E staining based analysis; assay type: toxicity, organism-based; conditions: in vivo, 672 h
[4] = Permeability of compound incubated for 12 hrs by PAMPA; assay type: ADME; conditions: read-out: permeability
U-118-MG [5] = assay: Antitumor activity against human U-118-MG cells xenografted in male BALB/c nude mouse assessed as tumor growth inhibition at 2.5 mg/kg, ip administered daily for 4 weeks relative to control; assay type: functional; conditions: 672 h, read-out: TGI
[6] = Nephrotoxicity in male BALB/c nude mouse xenografted with human U-118-MG cells assessed as shedding of renal tubular epithelial cells at 0.5 mg/kg, ip administered daily for 4 weeks by H and E staining based analysis; assay type: toxicity, organism-based; conditions: in vivo, 672 h
U-87 MG [7] = assay: Antiproliferative activity against human U-87 MG cells assessed as inhibition of cell proliferation incubated for 72 hrs by CCK8 assay; assay type: functional, cell-based, U-87MG ATCC
[8] = Toxicity in male BALB/c nude mouse xenografted with human U-118-MG cells assessed as body weight loss at 2.5 mg/kg, ip administered daily for 4 weeks; assay type: organism-based; conditions: in vivo, 672 h
U-118-MG [9] = assay: Cell cycle arrest in human U-118-MG cells assessed as accumulation of cells at G2 phase at 100 uM incubated for 24 hrs by flow cytometric analysis (reference value: 30.6 %); assay type: functional
U-118-MG [10] = assay: Antiproliferative activity against human U-118-MG cells assessed as inhibition of cell proliferation incubated for 72 hrs by CCK8 assay; assay type: functional, cell-based
[11] = Ratio of drug concentration in male Swiss albino mouse brain to plasma at 5 mg/kg, iv measured after 0.5 hrs; assay type: ADME, organism-based; conditions: read-out: BPR
U-118-MG [12] = assay: Antitumor activity against human U-118-MG cells xenografted in male BALB/c nude mouse assessed as tumor growth inhibition at 10 mg/kg, ip administered daily for 4 weeks relative to control; assay type: functional; conditions: 672 h, read-out: TGI
[13] = Drug distribution in male Swiss albino mouse plasma at 5 mg/kg, iv measured after 0.5 hrs; assay type: ADME, organism-based
U-118-MG [14] = assay: Cell cycle arrest in human U-118-MG cells assessed as accumulation of cells at S phase at 20 uM incubated for 24 hrs by flow cytometric analysis (reference value: 10.7 %); assay type: functional
U-118-MG [15] = assay: Cell cycle arrest in human U-118-MG cells assessed as accumulation of cells at G2 phase at 20 uM incubated for 24 hrs by flow cytometric analysis (reference value: 30.6 %); assay type: functional
U-118-MG [16] = assay: Induction of apoptosis in human U-118-MG cells assessed as apoptotic rate at 20 uM incubated for 24 hrs by Annexin V-FITC/PI staining based flow cytometric analysis relative to control; assay type: functional
[17] = Drug distribution in male Swiss albino mouse brain at 5 mg/kg, iv measured after 0.5 hrs; assay type: ADME, organism-based; conditions: read-out: Ct
U-118-MG [18] = assay: Cell cycle arrest in human U-118-MG cells assessed as accumulation of cells at G1 phase at 20 uM incubated for 24 hrs by flow cytometric analysis (reference value: 56.2 %); assay type: functional
U-118-MG [19] = assay: Antiproliferative activity against human U-118- MG cells assessed as inhibition of cell proliferation at 10 uM by crystal violet staining based analysis; assay type: functional
U-118-MG [20] = assay: Antiproliferative activity against human U-118- MG cells assessed as inhibition of cell proliferation by crystal violet staining based analysis; assay type: functional; conditions: dose 10-40 µM
U-87 MG [21] = assay: Antiproliferative activity against human U87 cells; assay type: functional, cell-based, U-87MG ATCC
[22] = Stability of compound in sodium phosphate buffer at pH 7.4 measured after 48 hrs by 1H NMR analysis; assay type: physicochemical; conditions: pH 7.4, 48 h
[23] = Stability of compound in 0.1M HCl solution at pH 1.0 assessed as parent compound remaining measured after 48 hrs by 1H NMR analysis; assay type: physicochemical; conditions: read-out: Stability
[24] = Stability of compound in sodium carbonate buffer at pH 10 measured after 48 hrs by 1H NMR analysis; assay type: physicochemical; conditions: pH 10, 48 h
[25] = Stability of compound in 0.1M HCl solution at pH 1.0 measured after 48 hrs by 1H NMR analysis; assay type: physicochemical; conditions: buffer, pH 1, 48 h
[26] = Stability of compound in 0.1M HCl solution at pH 1.0 assessed as parent compound remaining measured after 6 hrs by 1H NMR analysis; assay type: physicochemical; conditions: read-out: Stability

Papp at 12 h [4] | IC50 (U-87 MG [7]) | Stability [22] | Stability [25] | Compound | IC50 (U-118-MG [10]) | Activity (U-118-MG [19]) | Activity (U-118-MG [20]) | further results
1.47 ×10⁻⁶ cm/s | > 100 µM | – | – | Cn1nnc2c(C(N)=O)ncn2c1=O [TEMOZOLOMIDE] | > 100 µM | – | – | Activity (U-118-MG [1]): 41.3%; Activity (U-118-MG [2]): 18.9%; Activity [3]: Toxic; inhibition in vivo at 2.5 mg/kg (U-118-MG [5]): 80.4%; Activity [6]: Toxic; Activity [8]: Toxic; Activity (U-118-MG [9]): 36.8%
11 ×10⁻⁶ cm/s | > 100 µM | – | – | COc1ccc2c(c1OC)C(=O)O[C@@H]2[C@H]1c2c(cc3c(c2OC)OCO3)CCN1C [NOSCAPINE] | > 100 µM | – | – | Kp at 0.5 h [11]: 0.43; inhibition in vivo at 10 mg/kg (U-118-MG [12]): 31%; concentration at 0.5 h [13]: 45.3 ng/mL; Activity (U-118-MG [14]): 10.7%; Activity (U-118-MG [15]): 34.1%; Activity (U-118-MG [16]): 16.3%; concentration at 0.5 h [17]: 19.6 ng/g; Activity (U-118-MG [18]): 52.9%
12.8 ×10⁻⁶ cm/s | 39.1 µM | – | – | COc1ccc2c(c1OC)C(=O)O[C@@H]2[C@H]1c2c(c(C#N)c3c(c2OC)OCO3)CCN1C(F)(F)F | 19.7 µM | Active | Dose-dependent-effect | –
– | – | – | – | CC1=C2CC[C@@](C)(O)[C@@H]2[C@H]2OC(=O)[C@@H](CN(C)C)[C@@H]2CC1 | – | – | – | IC50 (U-87 MG [21]): 21 µM
18 ×10⁻⁶ cm/s | 67.5 µM | Stable | – | COc1ccc2c(c1OC)C(=O)O[C@@H]2[C@H]1c2c(cc3c(c2OC)OCO3)CCN1C(F)(F)F | 31.3 µM | Active | Dose-dependent-effect | remaining at 48 h [23]: 73%; Stability [24]: Stable
16.8 ×10⁻⁶ cm/s | 25.8 µM | – | – | COc1ccc2c(c1OC)C(=O)O[C@@H]2[C@H]1c2c(c(Cl)c3c(c2OC)OCO3)CCN1C(F)(F)F | 9.83 µM | Active | Dose-dependent-effect | –
– | – | Stable | Stable | FC(F)(F)N1CCc2ccccc2[C@@H]1c1ccccc1 | – | – | – | –
– | – | Unstable | Unstable | FC(F)(F)N1CCCc2ccccc21 | – | – | – | remaining at 6 h [26]: 7%; Stability [24]: Unstable
– | – | Stable | Stable | FC(F)(F)N1CCc2ccccc2C1Cc1ccccc1 (configuration not stated) | – | – | – | –
– | – | Stable | Stable | FC(F)(F)N1CCc2ccccc2C1 | – | – | – | –
– | – | Stable | Stable | CC1c2ccccc2CCN1C(F)(F)F (configuration not stated) | – | – | – | –
15.8 ×10⁻⁶ cm/s | 33.4 µM | – | – | COc1ccc2c(c1OC)C(=O)O[C@@H]2[C@H]1c2c(c(I)c3c(c2OC)OCO3)CCN1C(F)(F)F | 17.5 µM | Active | Dose-dependent-effect | –
